Values after ≈ are worked out from the molar mass of the structure shown. Marks after values point to notes of the source that are not given here.
What was measured:
[1] = tested on: Staphylococcus aureus ATCC 6538 adherent organisms (biofilm); assay: MIC/MBC in adherent-cell biofilm of S. aureus ATCC 6538; format: cell-based; details: for Adherent organisms (biofilm) MIC^b: S. aureus ATCC 6538, 20 h; for Adherent organisms (biofilm) MBC^b: S. aureus ATCC 6538, regrowth 20 h in antibiotic-free MHB
Method: An adherent biofilm for susceptibility testing was formed using a clinical isolate of Staphylococcus aureus (ATCC 6538). S. aureus biofilms were prepared in a tissue culture non-treated polystyrene 96-well plate (Corning) and washed with phosphate-buffered saline (PBS) to remove unbound bacteria. Subsequently, serial twofold dilutions of the compounds in MHB were added to wells containing adherent organisms. The polystyrene plates were incubated for 20 h at 37° C. The MIC was taken as the lowest drug concentration at which observable growth was inhibited.

[2] = tested on: MRSA; assay: Time-kill assay against MRSA in MHB
[3] = tested on: C. elegans infected with MRSA; assay: Treatment of C. elegans infected with MRSA; details: MRSA-infected worms, 100 μM; for Log CFU/worm: 16 hours treatment; for Log Reduction: versus DMSO control
[4] = molecular target: S. aureus HMGR (Staphylococcus aureus, UniProt Q9FD86); assay: biochemical
[5] = tested on: J774A.1 cells; assay: In vitro cell viability/cytotoxicity MTS assay; format: cell-based; details: 100 μM, 24 hours
Method: Cytotoxicity of the compounds was evaluated using J774A.1 cells (mitochondrial function) in the CellTiter 96® AQueous Non-Radioactive Cell Proliferation Assay (Promega). […] Formazan is measured by measuring the absorbance at 490 nm. Briefly, ˜2×10^4 J774A.1 cells suspended in 200 μL DMEM supplemented with 10% fetal bovine serum (FBS), L-glutamine, NaHCO3, pyridoxine-HCl, and […] glucose and preserved with 1% penicillin-streptomycin solution were seeded in 96-well plates and incubated at 37° C. in a 5% CO2 atmosphere. The cells were cultured for 24 hours (60% confluency) before the assays. The J774A.1 cells were further incubated with 100 μM of compounds (2f, […], 2j, and 2e) and DMSO as a control for 24 hours. The culture media was discarded, and the cells in each well were washed with PBS and re-suspended with 100 μL of cell culture media prior to addition of the assay reagent. The plates were incubated for 4 hours at 37° C. in a humidified 5% CO2 atmosphere. The absorbance at 490 nm was recorded using a 96-well Elisa plate reader (SoftMax ProInc., USA). Results were expressed as the percentage mean absorbance by cells upon incubation with various treatments (compounds 2f, 2j, 2i, and 2e) with respect to incubation with DMSO. The results are expressed as means from six measurements±SD.

[6] = tested on: Bacillus anthracis Sterne strain (34F2); format: cell-based
[7] = tested on: Bacillus subtilis; assay: Screen and MIC/MBC against Bacillus subtilis; format: cell-based
[8] = tested on: Bacillus cereus; assay: Screen and MIC/MBC against Bacillus cereus; format: cell-based
[9] = tested on: Listeria monocytogenes; assay: Screen and MIC/MBC against Listeria monocytogenes; format: cell-based
[10] = tested on: Brucella abortus; format: cell-based
[11] = tested on: Candida albicans ATCC 18804; assay: MIC/MFC against Candida albicans in YM broth; format: cell-based; details: yeast medium broth
Method: Antifungal activities of 22 HMG-CoA Reductase inhibitors were initially tested at 100 μM concentration against Candida albicans ATCC 18804.

[12] = tested on: Staphylococcus aureus ATCC 6538 planktonic organisms (not in biofilm); assay: MIC/MBC against planktonic S. aureus ATCC 6538; format: cell-based
[13] = tested on: vancomycin resistant Enterococcus faecalis (VRE) ATCC 51299; assay: MIC/MBC micro dilution against VRE; details: VRE ATCC 51299, MHB, 20 hours
[14] = tested on: methicillin-resistant Staphylococcus aureus (MRSA) ATCC 43300; assay: MIC/MBC micro dilution against MRSA
[15] = tested on: vancomycin intermediate Staphylococcus aureus (VISA) NRS1; assay: MIC/MBC against clinical VISA isolate
[16] = tested on: clinical methicillin-resistant Staphylococcus aureus (MRSA) isolates; assay: MIC/MBC against clinical MRSA isolates
[17] = tested on: C. elegans infected with VRE; assay: Treatment of C. elegans infected with VRE; details: VRE-infected worms, 100 μM

S. aureus HMGR, sequence (Q9FD86 entry or part of it): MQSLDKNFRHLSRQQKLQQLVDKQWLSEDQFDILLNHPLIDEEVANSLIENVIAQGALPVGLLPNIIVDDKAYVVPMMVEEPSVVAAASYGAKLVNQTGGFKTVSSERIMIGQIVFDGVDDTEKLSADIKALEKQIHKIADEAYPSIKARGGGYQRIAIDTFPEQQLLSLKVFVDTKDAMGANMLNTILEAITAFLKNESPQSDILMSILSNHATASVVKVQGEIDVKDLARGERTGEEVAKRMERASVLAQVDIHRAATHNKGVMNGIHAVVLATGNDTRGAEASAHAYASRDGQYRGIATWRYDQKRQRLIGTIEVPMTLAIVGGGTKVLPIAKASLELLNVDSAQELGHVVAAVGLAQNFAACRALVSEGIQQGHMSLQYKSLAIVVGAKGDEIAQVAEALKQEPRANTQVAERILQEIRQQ

## CN[C@H](CC(C)C)C(=O)N[C@H]1C(=O)N[C@@H](CC(N)=O)C(=O)N[C@H]2C(=O)N[C@H]3C(=O)N[C@H](C(=O)N[C@H](C(=O)O)c4cc(O)cc(O)c4-c4cc3ccc4O)[C@H](O)c3ccc(c(Cl)c3)Oc3cc2cc(c3O[C@@H]2O[C@H](CO)[C@@H](O)[C@H](O)[C@H]2O[C@H]2C[C@](C)(N)[C@H](O)[C@H](C)O2)Oc2ccc(cc2Cl)[C@H]1O [Vancomycin, vancomycin, reference compound]
[1]
  Adherent organisms (biofilm) MIC^b: 2 µM
  Adherent organisms (biofilm) MBC^b: 8 µM
[2]; 3× MIC
  time-kill of MRSA cells: failed to reduce the number of CFU by 3-log10 within a 10 hour window
[3]
  Log CFU/worm: 3.26 ± 0.20 Log CFU/worm
  Log Reduction: 1.78*

## CCCCCCCCCCc1ccc(NS(=O)(=O)c2ccc(O)c(C(=O)O)c2)cc1 [Compound 2f, 5-[N-(4-decylphenyl)sulfamoyl]-2-hydroxybenzoic acid]
[4]
  IC50: 7.2 µM
[5]
  percentage mean absorbance at 490 nm (MTS) versus DMSO: no significant differences in percentage mean absorption
[6]; 100 μM
  inhibition of growth in initial screen: showed inhibition of growth
[6]; MHB
  Bacillus anthracis MBC: 16/16
  Bacillus anthracis MIC: 16/16
[7]; 100 μM
  inhibition of growth in initial screen: showed inhibition of growth
[7]; MHB
  Bacillus subtilis MBC: 16/16
  Bacillus subtilis MIC: 16/16
[8]; 100 μM
  inhibition of growth in initial screen: showed inhibition of growth
[8]; MHB
  Bacillus cereus MBC: 16/16
  Bacillus cereus MIC: 16/16
[9]; 100 μM
  inhibition of growth in initial screen: showed inhibition of growth
[9]; MHB
  Listeria monocytogenes MBC: > 128 µM
  Listeria monocytogenes MIC: 64 µM
[10]; 100 μM
  inhibition of growth in initial screen: showed inhibition of growth
[10]; MHB
  Brucella abortus (single value, head does not say MIC or MBC): 128 µM
[11]
  Candida albicans MFC: 16/16
  Candida albicans MIC: 16/16
[12]
  Planktonic organisms (not in biofilm) MBC: 16 µM
  Planktonic organisms (not in biofilm) MIC: 16 µM
[1]
  Adherent organisms (biofilm) MIC^b: 64 µM
  Adherent organisms (biofilm) MBC^b: 128 µM
[13]
  VRE MBC: 32/32
[14]; MRSA ATCC 43300, MHB, 20 hours, Table 2
  MRSA MBC: 16/16
[14]; Staphylococcus aureus
  MBC: 16 µM (≈ 6.94 µg/mL)
  MIC: 16 µM (≈ 6.94 µg/mL)
[2]; 1× MIC or 2× MIC
  time-kill of MRSA cells: four hours are required to eliminate bacteria completely
[2]; 3× MIC
  time-kill of MRSA cells: complete elimination of MRSA cells within a two-hour window
[15]
  MBC: 4 µM (≈ 1.73 µg/mL)
  MIC: 4 µM (≈ 1.73 µg/mL)
[16]; MRSA / NRS123 / USA400
  MBC: 16 µM (≈ 6.94 µg/mL)
  MIC: 4 µM (≈ 1.73 µg/mL)
[16]; MRSA / NRS382 / USA100
  MBC: 8 µM (≈ 3.47 µg/mL)
  MIC: 8 µM (≈ 3.47 µg/mL)
[16]; MRSA / NRS383 / USA200
  MBC: 4 µM (≈ 1.73 µg/mL)
  MIC: 4 µM (≈ 1.73 µg/mL)
[16]; MRSA / NRS384 / USA300
  MBC: 8 µM (≈ 3.47 µg/mL)
  MIC: 4 µM (≈ 1.73 µg/mL)
[16]; MRSA / NRS385 / USA500
  MBC: 8 µM (≈ 3.47 µg/mL)
  MIC: 4 µM (≈ 1.73 µg/mL)
[16]; MRSA / NRS386 / USA700
  MBC: 8 µM (≈ 3.47 µg/mL)
  MIC: 4 µM (≈ 1.73 µg/mL)
[16]; MRSA / NRS387 / USA800
  MBC: 8 µM (≈ 3.47 µg/mL)
  MIC: 4 µM (≈ 1.73 µg/mL)
[16]; MRSA / NRS483
  MBC: 8 µM (≈ 3.47 µg/mL)
  MIC: 4 µM (≈ 1.73 µg/mL)
[16]; MRSA / NRS484
  MBC: 8 µM (≈ 3.47 µg/mL)
  MIC: 4 µM (≈ 1.73 µg/mL)
[17]; 16 hours treatment
  Log CFU/worm: 0.70 ± 0.37 Log CFU/worm
[17]; versus DMSO control
  Log Reduction: 4.20*
[3]
  Log CFU/worm: 2.33 ± 0.09 Log CFU/worm
  Log Reduction: 2.71*

Reference: US9604925B2, “Class II HMG-CoA reductase inhibitors and methods of use” (Purdue Research Foundation, priority 2012, dated 2017)
